We go through nine compounds from ChEMBL document CHEMBL4513161, “CO-ADD screening of MMV (CH) - Pandemic Response Box” (2021).

In general, CC50 refers to the concentration that lowers cell viability or growth by half.

Structures are written as SMILES.

For one test, the system named is HEK293. The experiment in a line: cells. To be noted: Homo sapiens, ATCC CRL1573, HEK293; ASSAY_TEST Inhibition of Cell Viability; detection method Resazurin; Fluorescence (ex560/em590); MEDIA DMEM with 10% FBS; plate type 384well; TC; CORNING #3712; time 18 hr; read-out: CC50. In kind it is functional, Homo sapiens, ATCC CRL1573.
For test [1], the system named is Pseudomonas aeruginosa. The experiment in a line: Antibacterial activity against Pseudomonas aeruginosa PAO397 [PAO1 d(mexAB-oprM) d(mexCD-oprJ) d(mexEF-oprN) d(mexJKL) d(mexXY) d(opmH)] (CO-ADD:GN_211); MIC in CAMBH media using NBS plates, by OD(600). To be noted: ASSAY_TEST Inhibition of Bacterial Growth, detection method Absorption (OD600), MEDIA CAMHB, plate type 384well, CORNING #3640, time 18 hr. The format is functional.

In another test the test system is Staphylococcus aureus. The experiment in a line: microbe, parasite or virus in culture. As to conditions: ATCC 43300, 18 h, ASSAY_TEST Inhibition of Bacterial Growth, detection method Absorption (OD600), MEDIA CAMHB, plate type 384well, NBS, CORNING #3640.
For the next test, the system named is Escherichia coli. The test can be described thus: microbe, parasite or virus in culture. As to conditions: ATCC 25922, 18 h, ASSAY_TEST Inhibition of Bacterial Growth, detection method Absorption (OD600), MEDIA CAMHB, plate type 384well, NBS, CORNING #3640.
The next test concerns Klebsiella pneumoniae. The test can be described thus: microbe, parasite or virus in culture. To be noted: ATCC 700603, 18 h, ASSAY_TEST Inhibition of Bacterial Growth, detection method Absorption (OD600), MEDIA CAMHB, plate type 384well, NBS, CORNING #3640.
For test [2], the system named is Pseudomonas aeruginosa. The test can be described thus: microbe, parasite or virus in culture. As to conditions: ATCC 27853, 18 h, ASSAY_TEST Inhibition of Bacterial Growth, detection method Absorption (OD600), MEDIA CAMHB, plate type 384well, NBS, CORNING #3640.
Description: Antibacterial activity against Pseudomonas aeruginosa ATCC 27853 (CO-ADD:GN_042); MIC in CAMBH media using NBS plates, by OD(600)
The subject of a further test is Acinetobacter baumannii. The experiment in a line: microbe, parasite or virus in culture. To be noted: ATCC 19606, 18 h, ASSAY_TEST Inhibition of Bacterial Growth, detection method Absorption (OD600), MEDIA CAMHB, plate type 384well, NBS, CORNING #3640.
The test system of another test is Candida albicans. The experiment in a line: microbe, parasite or virus in culture. To be noted: ATCC 90028, ASSAY_TEST Inhibition of Fungal Growth, detection method Absorption (OD530), plate type 384well, NBS, CORNING #3640.

Description for Acinetobacter baumannii: Antibacterial activity against Acinetobacter baumannii ATCC 19606 (CO-ADD:GN_034); MIC in CAMBH media using NBS plates, by OD600
Description for Candida albicans: Antifungal activity against Candida albicans ATCC 90028 (CO-ADD:FG_001); MIC in YNB media using NBS plates, by OD630
Description for Cryptococcus neoformans: Antifungal activity against Cryptococcus neoformans H99 ATCC 208821 (CO-ADD:FG_002); MIC in YNB media using NBS plates, by Resazurin OD(600-570)
Description for Escherichia coli: Antibacterial activity against Escherichia coli ATCC 25922 (CO-ADD:GN_001); MIC in CAMBH media using NBS plates, by OD(600)
Description for Klebsiella pneumoniae: Antibacterial activity against Klebsiella pneumoniae MDR ATCC 70063 (CO-ADD:GN_003); MIC in CAMBH media using NBS plates, by OD(600)
Description for Staphylococcus aureus: Antibacterial activity against Staphylococcus aureus MRSA ATCC 43300 (CO-ADD:GP_020); MIC in CAMBH media, using NBS plates, by OD(600)

Regarding `Cc1nc2ccc(Cl)cc2c(-c2ccccc2)c1CC(=O)O`, the CC50 in the test on HEK293 is more than 20 µM. The MIC in the test on Pseudomonas aeruginosa [1], against Cryptococcus neoformans, in the test with Staphylococcus aureus, in the test on Escherichia coli, in the test with Klebsiella pneumoniae and in the test with Pseudomonas aeruginosa [2] was more than 20 µM each time. In addition, the MIC against Acinetobacter baumannii and against Candida albicans was more than 20 µM throughout.

For the compound `Cc1ccc(C)c(OCCCCCCN2C[C@H](O)[C@@H](O)[C@H](O)[C@H]2CO)c1`, the CC50 in the test on HEK293 is more than 20 µM. Also, the MIC against Pseudomonas aeruginosa [1], in the test on Cryptococcus neoformans, against Staphylococcus aureus, in the test on Escherichia coli, with Klebsiella pneumoniae and in the test with Pseudomonas aeruginosa [2] was more than 20 µM each time. In addition, the MIC in the test with Acinetobacter baumannii and with Candida albicans was more than 20 µM each time.

As to `Cc1ccc(N2CCC(CCOc3ccc(S(C)(=O)=O)cc3)CC2)nn1`, the 50% cytotoxic concentration (CC50) in the test with HEK293 was more than 20 µM. The MIC against Pseudomonas aeruginosa [1], against Cryptococcus neoformans, with Staphylococcus aureus, with Escherichia coli, against Klebsiella pneumoniae and against Pseudomonas aeruginosa [2] was more than 20 µM in each case. The MIC with Acinetobacter baumannii and in the test on Candida albicans was more than 20 µM each time.

Consider `CCc1cc(CCCOc2c(C)cc(-c3noc(C(F)(F)F)n3)cc2C)on1`, for which the CC50 with HEK293 is more than 20 µM. For the same compound, the MIC against Pseudomonas aeruginosa [1], in the test on Cryptococcus neoformans, in the test on Staphylococcus aureus, against Escherichia coli, in the test on Klebsiella pneumoniae and against Pseudomonas aeruginosa [2] was more than 20 µM each time. In addition, the MIC in the test with Acinetobacter baumannii and against Candida albicans was more than 20 µM in each case.

For the compound `CCC(CC)[C@H](NC(C)=O)[C@@H]1[C@H](O)[C@@H](C(=O)O)C[C@H]1NC(=N)N`, the half-maximal cytotoxic concentration (CC50) in the test with HEK293 is more than 20 µM. Further, the MIC in the test with Pseudomonas aeruginosa [1], in the test with Cryptococcus neoformans, against Staphylococcus aureus, in the test with Escherichia coli, against Klebsiella pneumoniae and against Pseudomonas aeruginosa [2] was more than 20 µM throughout. Further, the MIC in the test on Acinetobacter baumannii and in the test on Candida albicans was more than 20 µM throughout.

For the compound `COc1ccc2c(c1OC)C(=O)OC2C1c2c(cc3c(c2OC)OCO3)CCN1C` (stereo unspecified), in the test on HEK293, the half-maximal cytotoxic concentration (CC50) was more than 20 µM. Moreover, the MIC in the test with Pseudomonas aeruginosa [1], against Cryptococcus neoformans, against Staphylococcus aureus, in the test with Escherichia coli, in the test on Klebsiella pneumoniae and against Pseudomonas aeruginosa [2] was more than 20 µM each time. Also, the MIC in the test on Acinetobacter baumannii and with Candida albicans was more than 20 µM in each case.

`CCCCCCCCCN1C[C@@H](O)[C@H](O)[C@@H](O)[C@@H]1CO`: the 50% cytotoxic concentration (CC50) in the test with HEK293 was more than 20 µM. Besides, the MIC in the test on Pseudomonas aeruginosa [1], against Cryptococcus neoformans, in the test with Staphylococcus aureus, with Escherichia coli, in the test with Klebsiella pneumoniae and in the test on Pseudomonas aeruginosa [2] was more than 20 µM in each case. Besides, the MIC against Acinetobacter baumannii and against Candida albicans was more than 20 µM in each case.

`O=C(NCCN1CCCCC1)c1cccc(C(F)(F)F)c1`: in the test with HEK293, the half-maximal cytotoxic concentration (CC50) was more than 20 µM. Further, the MIC in the test on Pseudomonas aeruginosa [1], against Cryptococcus neoformans, with Staphylococcus aureus, against Escherichia coli, in the test with Klebsiella pneumoniae and in the test on Pseudomonas aeruginosa [2] was more than 20 µM throughout. Besides, the MIC against Acinetobacter baumannii and against Candida albicans was more than 20 µM each time.

As for `COc1ccc2sc3c(c2c1)NC(C)CNC3=O` (stereo unspecified), the CC50 in the test with HEK293 came to 8.52 µM. Besides, the MIC against Pseudomonas aeruginosa [1], with Cryptococcus neoformans, in the test on Staphylococcus aureus, in the test on Escherichia coli, against Klebsiella pneumoniae and with Pseudomonas aeruginosa [2] was more than 20 µM in each case. Further, the MIC in the test with Acinetobacter baumannii and in the test with Candida albicans was more than 20 µM throughout.
